Laboratory results published in patent EP4470536A1, “COMPOUND FOR USE IN TREATING FIBRODYSPLASIA OSSIFICANS PROGRESSIVA (FOP)” (Queen's University At Kingston, priority 2023, dated 2024).

Key:
CYP26A1 = target: T1, CYP26A1 (Homo sapiens, UniProt O43174); experiment: HeLa cell-based inhibitor assay (HeLa-CYP26A1), inhibition of all trans-RA metabolism; settings: CYP26A1 cells, highest concentration tested (10 µM), Figure 2, read-out: percentage inhibition
T1 construct: expressed in transfected cells; host or cells: HeLa (stably transfected, hygromycin selection)
T1 sequence (O43174 1-497): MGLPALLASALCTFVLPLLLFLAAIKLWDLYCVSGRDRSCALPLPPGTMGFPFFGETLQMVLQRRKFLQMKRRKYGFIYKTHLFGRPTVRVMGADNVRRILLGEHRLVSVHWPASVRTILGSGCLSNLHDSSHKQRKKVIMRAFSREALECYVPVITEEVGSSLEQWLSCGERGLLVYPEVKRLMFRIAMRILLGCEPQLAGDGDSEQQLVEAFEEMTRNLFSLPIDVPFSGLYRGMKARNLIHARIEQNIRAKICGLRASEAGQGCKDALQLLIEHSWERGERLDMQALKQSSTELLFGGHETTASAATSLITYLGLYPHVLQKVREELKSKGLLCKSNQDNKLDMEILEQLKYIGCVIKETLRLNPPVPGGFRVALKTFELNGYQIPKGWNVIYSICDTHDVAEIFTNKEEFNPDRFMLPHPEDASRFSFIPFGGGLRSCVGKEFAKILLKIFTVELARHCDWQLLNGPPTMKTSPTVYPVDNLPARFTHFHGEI
Description: (§1) CYP26A1 or CYP26B1 cDNA stably transfected HeLa cells were maintained in Minimum Essential Medium (MEM) containing 10% fetal bovine serum (FBS), 1X antibiotic/antimycotic cocktail, and […] hygromycin. Exponentially growing cells were harvested by incubation in trypsin. Cells were then collected and re-plated in 48-well culture plates at 1.5×10^5 (CYP26A1) or 1.5×10^4 (CYP26B1) cells in 0.2 mL of culture medium containing 0.04µCi [^3H]-RA (retinoic acid) in the presence or absence of increasing concentrations of a test compound. The test compound was diluted in dimethyl sulfoxide (DMSO) and then added in duplicate to wells to 0.01 nM, 0.1 nM, 1 nM, 10 nM, 100 nM, 1 µM, and 10 µM final concentrations. Cells were incubated for 3 hours at 37 °C. Retinoids were then extracted using the procedure of Bligh, et al., (1959), Canadian Journal of Biochemistry 37, 911-917, which was modified by using dichloromethane instead of chloroform. Each sample's water-soluble radioactivity level was quantified using a β-scintillation counter (using Ecolume scintillation fluid, available from MP Biomedicals of Solon, OH, USA). IC50 values represented the concentration of inhibitor required to inhibit all trans-RA metabolism by 50%, and were derived from log transformed data.

RAR = RAR transcriptional activation assay (RARE-luc MCF-7 cells); assay type: cell-based; settings: 0.1 nM to 10 µM, 24 hours of treatment; Figure 5
From the text: This retinoid transcriptional activity assay measures the ability of a test compound to induce expression of a RA-sensitive reporter construct. This assay utilizes MCF-7 cells stably transduced with a gene construct comprising 4 tandem RA-response elements linked to a promoter driving transcriptional expression of the firefly luciferase encoding mRNA (RARE-luc). This construct serves as a sensitive reporter of retinoid-like activity.
RARE-luc transduced MCF-7 cells were maintained in a RPMI-1640 medium containing 10% FBS. Cells were grown in 96-well plates, and treated with the test compound diluted in DMSO in duplicate at 0.1 nM, 1 nM, 10 nM, 100 nM, 1 µM and 10 µM final concentrations. As a positive control for reporter activation, cells were also treated with RA diluted in DMSO at the same concentrations. DMSO treatment alone served as a negative control. After 24 hours of treatment, cells were harvested lysis buffer (Molecular Devices, San Jose, USA) and luciferase activity in cell lysates were read using a luminometer.

CYP26B1 = target: T2, CYP26B1 (Homo sapiens, UniProt Q9NR63); experiment: HeLa cell-based inhibitor assay (HeLa-CYP26B1), inhibition of all trans-RA metabolism; settings: CYP26B1 cells; [3H]-RA, 3 hours at 37 °C; Figure 1
T2 sequence (Q9NR63 1-512): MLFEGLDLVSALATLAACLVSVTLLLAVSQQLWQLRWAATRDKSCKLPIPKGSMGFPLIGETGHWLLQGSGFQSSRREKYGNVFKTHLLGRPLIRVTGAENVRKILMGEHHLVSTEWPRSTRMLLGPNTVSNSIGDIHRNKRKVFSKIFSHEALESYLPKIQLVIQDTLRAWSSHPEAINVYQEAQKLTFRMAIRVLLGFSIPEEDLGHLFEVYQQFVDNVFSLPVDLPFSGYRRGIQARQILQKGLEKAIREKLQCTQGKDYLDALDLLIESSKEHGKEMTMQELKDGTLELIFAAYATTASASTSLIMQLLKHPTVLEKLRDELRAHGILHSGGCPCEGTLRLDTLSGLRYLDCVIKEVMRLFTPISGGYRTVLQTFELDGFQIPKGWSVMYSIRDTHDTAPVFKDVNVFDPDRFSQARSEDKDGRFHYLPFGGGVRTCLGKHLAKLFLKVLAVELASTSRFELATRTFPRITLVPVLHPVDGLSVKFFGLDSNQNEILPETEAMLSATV
Description: as §1

[1] = Mapping a therapeutic window (ED50 versus MTD); assay type: in vivo
From the text: For both palovarotene and compound 1 efficacy and toxicity were correlated to the pharmacokinetic parameters AUC (area under the curve), Cmax (maximum concentration detected following compound administration), and duration above EC50/IC50.This illustrated that efficacy was best predicted by duration above the EC50/IC50 (effective concentration for 50% response (in the case of palovarotene), or for 50% inhibition (in the case of compound 1)), whereas toxicity was best predicted by Cmax. […] For palovarotene, efficacy data from Example 7 and toxicity data from Example 8 above were compiled with mined data from the following publications: • Lindborg et al (2018). "Cartilage-derived retinoic acid-sensitive protein (CD-RAP): A stage-specific biomarker of heterotopic endochondral ossification (HEO) in fibrodysplasia ossificans progressiva (FOP)." Bone 109: 153-157. • Chakkalakal, S. A., et al. (2016). "Palovarotene Inhibits Heterotopic Ossification and Maintains Limb Mobility and Growth in Mice With the Human ACVR1(R206H) Fibrodysplasia Ossificans Progressiva (FOP) Mutation." J Bone Miner Res 31(9): 1666-1675. • Inubushi, T., et al. (2018). "Palovarotene Inhibits Osteochondroma Formation in a Mouse Model of Multiple Hereditary Exostoses." J Bone Miner Res 33(4): 658-666. • Lees-Shepard, J. B., et al. (2018). […] "Potent inhibition of heterotopic ossification by nuclear retinoic acid receptor-gamma agonists." Nat Med 17(4): 454-460.

## CC(C)(C)c1cccc(-c2cc3cc(/C=C/C(=O)O)ccc3[nH]2)c1 [Compound 1, (E)-3-(2-(3-(tert-butyl)phenyl)-1H-indol-5-yl)acrylic acid]
CYP26A1
  inhibition at 10 µM: 33%
RAR
  luciferase activity: did not induce luciferase activity significantly
CYP26B1
  IC50: 12.7 nM
[1]; Mus musculus, BID, effective dose for 50% reduction in ectopic bone
  ED50: 4 mg/kg
[1]; both sexes, FVB, mouse, in vivo
  MTD at 4 weeks: 10 mg/kg
